In US20250197864A1, “LNCRNA TRANSCRIPTS IN MELANOMAGENESIS” (The Regents of the University of California, priority 2021, published 2025):

System: gene expression in D04 melanoma cells
Experiment: RNA-Seq differential expression analysis (DESeq2)
Assay type: cell-based, human
Experimental: Total RNA was isolated using the RNeasy mini Kit (QIAGEN) following the manufacturer's protocol. Quality check for extracted RNA was done using 2100 Bioanalyzer (Agilent Technologies, USA) or Tapestation System (Agilent Technologies, USA). […] For samples used for identification of MAPK-responsive lncRNAs, paired-end, 101-bp sequencing was performed by Centrillion Genomic Services (Centrillion Biosciences, USA) on an Illumina HiSeq 2000. For DE gene analysis of ASO-transfected D04 samples, paired-end, 2×150-bp sequencing was performed by Genewiz (USA) on a Illumina HiSeq.
Sequence reads were aligned to the human genome (hg19) using TopHat (Version 2.0.11).
Differential expression (DE) analysis was done using DESeq2. Differentially expressed genes were defined by more than 1.5-fold changes (log 2 >0.58 or <−0.58) in expression with FDR<0.05. GO term analysis was done using DAVID Functional Annotation Clustering analysis.
To examine the biomolecular changes upon TRASH-inhibition in melanoma, D04 cells were treated with TRASH-ASOs (SEQ ID NO:15) and Control-ASOs and RNA was extracted and used for RNA-Seq. […] These GO terms consisted of genes encoding growth factors, tyrosine kinases, G protein coupled receptor subunits, and collagen subunits. Scatter plot diagram showing differential gene expression after TRASH-ASO treatment compared to Control-ASO treatment. (cut-off for significance was adjusted p-value <0.05). Data was obtained from RNA-Seq of D04 melanoma cells, treatment period was three days. (FIG. 5c)

GACTGGAGATAATTAA (gapmer, pattern not given here) [SEQ ID NO: 15, GapmeR ASO targeting AC004540.4 (TRASH), exon region of both isoforms; used for in vitro experiments]
log2FoldChange (LINC00689 (ENSG00000231419)): 1.29
log2FoldChange (LINC00707 (ENSG00000238266)): 1.936
log2FoldChange (LINC00879 (ENSG00000239589)): −0.6051
log2FoldChange (LINC00957 (ENSG00000235314)): 1.503
log2FoldChange (LINC00973 (ENSG00000240476)): 1.339
log2FoldChange (LINC01204 (ENSG00000229563)): 1.543
log2FoldChange (LINC01444 (ENSG00000264301)): 1.479
log2FoldChange (LINC01468 (ENSG00000231131)): 1.433
log2FoldChange (LINC01505 (ENSG00000234323)): −0.6329
log2FoldChange (LINC01583 (ENSG00000259518)): 1.348
log2FoldChange (LINC01638 (ENSG00000233521)): 1.544
log2FoldChange (LINC01770 (ENSG00000225285)): −0.5999
log2FoldChange (LINC02009 (ENSG00000283646)): 2.6101
log2FoldChange (LINC02109 (ENSG00000259786)): −0.684
log2FoldChange (LINC02302 (ENSG00000258998)): 1.424
log2FoldChange (LINC02506 (ENSG00000251129)): −0.687
log2FoldChange (LINC02551 (ENSG00000254842)): 1.274
log2FoldChange (LOXL2 (ENSG00000134013)): −0.5824
log2FoldChange (LOXL3 (ENSG00000115318)): −0.6239
log2FoldChange (LPAR1 (ENSG00000198121)): −0.683
log2FoldChange (LRRC2 (ENSG00000163827)): 1.394
log2FoldChange (LRRC17 (ENSG00000128606)): −0.6716
log2FoldChange (LRRK1 (ENSG00000154237)): −0.6611
log2FoldChange (MACROD2 (ENSG00000172264)): −0.705
log2FoldChange (MAML2 (ENSG00000184384)): −0.6085
log2FoldChange (MAP3K3 (ENSG00000198909)): −0.63
log2FoldChange (MAP3K7CL (ENSG00000156265)): 1.53
log2FoldChange (MAP7D2 (ENSG00000184368)): 1.513
log2FoldChange (MATN1 (ENSG00000162510)): 1.294
log2FoldChange (MCF2L (ENSG00000126217)): 3.367
log2FoldChange (MECR (ENSG00000116353)): −0.6676
log2FoldChange (MEGF9 (ENSG00000106780)): −0.634
log2FoldChange (MEIS1 (ENSG00000143995)): −0.6955
log2FoldChange (MLLT1 (ENSG00000130382)): −0.682
log2FoldChange (MMP3 (ENSG00000149968)): 1.815
log2FoldChange (MPP4 (ENSG00000082126)): 1.479
log2FoldChange (MRGPRX4 (ENSG00000179817)): 1.367
log2FoldChange (MSANTD2 (ENSG00000120458)): −0.6954
log2FoldChange (MUC4 (ENSG00000145113)): 2.706
log2FoldChange (MVB12B (ENSG00000196814)): −0.6767
log2FoldChange (MYBPH (ENSG00000133055)): −0.6322
log2FoldChange (MYCT1 (ENSG00000120279)): 3.863
log2FoldChange (MYH16 (ENSG00000002079)): 1.514
log2FoldChange (MYOCD (ENSG00000141052)): −0.6639
log2FoldChange (NA (ENSG00000170647)): −0.6428
log2FoldChange (NAP1L3 (ENSG00000186310)): 1.339
log2FoldChange (NBEA (ENSG00000172915)): −0.6249
log2FoldChange (NBEAP1 (ENSG00000258590)): 1.338
log2FoldChange (NCALD (ENSG00000104490)): −0.6411
log2FoldChange (NCAM1 (ENSG00000149294)): −0.6126
log2FoldChange (NCKAP5L (ENSG00000167566)): −0.6233
log2FoldChange (NES (ENSG00000132688)): −0.6119
log2FoldChange (NLRC3 (ENSG00000167984)): 1.713
log2FoldChange (NLRP1 (ENSG00000091592)): −0.7071
log2FoldChange (NLRP3 (ENSG00000162711)): 2.515
log2FoldChange (NLRP5 (ENSG00000171487)): 6.997
log2FoldChange (NLRP10 (ENSG00000182261)): 1.584
log2FoldChange (NOSTRIN (ENSG00000163072)): −0.6677
log2FoldChange (NR2F1 (ENSG00000175745)): −0.6433
log2FoldChange (NR2F1-AS1 (ENSG00000237187)): −0.5814
log2FoldChange (OLFML2A (ENSG00000185585)): −0.6037
log2FoldChange (ONECUT2 (ENSG00000119547)): 1.306
log2FoldChange (OPRK1 (ENSG00000082556)): 1.22
log2FoldChange (OVAAL (ENSG00000236719)): 1.572
log2FoldChange (P2RX6 (ENSG00000099957)): −0.6686
log2FoldChange (P2RX7 (ENSG00000089041)): −0.5889
log2FoldChange (PADI1 (ENSG00000142623)): 2.566
log2FoldChange (PADI3 (ENSG00000142619)): 1.708
log2FoldChange (PAPPA (ENSG00000182752)): −0.6776
log2FoldChange (PCDH12 (ENSG00000113555)): 1.386
log2FoldChange (PCDHB15 (ENSG00000113248)): −0.6069
log2FoldChange (PDE2A (ENSG00000186642)): 1.553
log2FoldChange (PDE8A (ENSG00000073417)): −0.6263
log2FoldChange (PEAR1 (ENSG00000187800)): 1.726
log2FoldChange (PGM5P2 (ENSG00000277778)): 1.447
log2FoldChange (PIGR (ENSG00000162896)): 1.274
log2FoldChange (PIWIL2 (ENSG00000197181)): 1.787
log2FoldChange (PKHD1L1 (ENSG00000205038)): 1.46
log2FoldChange (PKIA (ENSG00000171033)): −0.6985
log2FoldChange (PLA2G7 (ENSG00000146070)): 1.312
log2FoldChange (PLAT (ENSG00000104368)): −0.6194
log2FoldChange (PLCD4 (ENSG00000115556)): −0.6812
log2FoldChange (PLCL1 (ENSG00000115896)): −0.6782
log2FoldChange (PLCXD2 (ENSG00000240891)): 1.882
log2FoldChange (PLEKHA2 (ENSG00000169499)): −0.6601
log2FoldChange (PLIN4 (ENSG00000167676)): −0.6819
log2FoldChange (POU2F3 (ENSG00000137709)): 1.244
